Experiments:
human HepG2 cells = experiment: Iodine labeled LDL binding in HepG2 cells in culture; type: cell-based; conditions: 2 μM or 5 μM tested, added 24-48 hr after incubation began, FIG. 1a
Procedure: (§1) With reference to FIGS. 1a-b, an experiment was conducted wherein iodine labeled LDL was incubated with HepG2 or rat hepatocytes in culture with and without cleaved α1 -antitrypsin or hypocholesterolemic peptides. The cleaved α1 -antitrypsin and hypocholesterolemic peptides were added 24-48 hr after incubation began in 2 micromolar (μM) or 5 μM concentrations. The bound LDL was quantitated by counting. The control indicates the amount of bound LDL obtained when no cleaved α1 -antitrypsin or hypocholesterolemic peptides are present. FIGS. 1a-b show maximum LDL binding occurs when 2 μM α1 -antitrypsin or its peptide derivatives are added.
An acetyl derivative of SEQ ID No. 16 was tested experimentally in human Hep G2 cells for LDL binding in the same manner as described above in connection with FIGS. 1a-b. […] ID No. 16. The sub-fragment was added 24-48 hours after incubation began in concentrations ranging from 0.13-1.4 μM.

rat hepatocytes = experiment: Iodine labeled LDL binding in rat hepatocytes in culture; type: cell-based; conditions: 2 μM or 5 μM tested, added 24-48 hr after incubation began, FIG. 1b
Procedure: as §1

## α1 -antitrypsin
Human HepG2 cells
  concentration at which maximum LDL binding occurs: 2 µM
Rat hepatocytes
  concentration at which maximum LDL binding occurs: 2 µM
